{
  "source": "patent US8809275B2",
  "about": "“Peptoids and methods for treating alzheimer's disease” (The Board of Trustees of the University of Arkansas, priority 2011, dated 2014)",
  "biological_target": "T1, Aβ fibrils (Homo sapiens, UniProt P05067)",
  "T1 construct": "aliquots of Aβ(1-40) monomer, purified via size exclusion chromatography on Superdex 75",
  "T1 sequence (P05067 672-711)": "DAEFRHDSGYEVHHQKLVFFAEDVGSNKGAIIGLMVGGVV",
  "experiment": "Dot blot assay with LOC antibody binding to Aβ fibrils",
  "type": "biochemical",
  "protocol": "The results of the ThT assay were confirmed using a dot blot assay with antibodies capable of binding to Aβ fibrils, but not Aβ monomers or pre-fibrils (LOC, available from Millipore). Thus, reduction of signal in the dot blot as compared to control is indicative of the peptoid blocking fibril formation. The intensity of the dot blot signal detecting the binding of the LOC antibody to the Aβ fibrils after incubation with a control was set to 100% to indicate maximal fibril formation. This can then be compared to the intensity of the LOC antibody dot blot signal after incubation of the Aβ with each of the peptoids. A reduction in the percent of antibody binding is indicative of inhibition of aggregation of Aβ in the assay. […] To control for the signal being at the maximum intensity parallel samples were diluted in half with 40 mM Tris buffer before being blotted (1:2). After 2 hours of incubation, none of the peptoids were capable of inhibiting aggregation of Aβ at a 1:1 dilution, likely because the antibody signal is too saturated to detect any effect of the peptoids.",
  "note": "Non-standard residues stand in square brackets, D forms with d. Residues, ends and D or L forms follow the SMILES beside them. N(1S-Me-propyl)Gly = CC[C@H](C)NCC(=O)O; Nspe = C[C@H](NCC(=O)O)c1ccccc1; Nlys = NCCCCNCC(=O)O",
  "data": [
    {"molecule": "CC[C@H](C)N(CC(=O)N(CC(=O)N(CC(=O)N(CC(=O)N(CC(=O)N(CC(=O)N(CC(N)=O)[C@@H](C)c1ccccc1)[C@@H](C)c1ccccc1)[C@@H](C)CC)[C@@H](C)c1ccccc1)[C@@H](C)c1ccccc1)[C@@H](C)CC)C(=O)CNCCCCN", "note": "[Peptoid 2] (H-[Nlys][N(1S-Me-propyl)Gly][N(1S-Me-propyl)Gly][Nspe][Nspe][N(1S-Me-propyl)Gly][Nspe][Nspe]-NH2)", "values": [
      {"measurement": "LOC antibody dot blot signal, percent of control (control = 100%)", "setting": "Time 0 hr, dilution 1:1", "value": 73.03, "unit": "%"},
      {"measurement": "LOC antibody dot blot signal, percent of control (control = 100%)", "setting": "Time 0 hr, dilution 1:2", "value": 56.91, "unit": "%"},
      {"measurement": "LOC antibody dot blot signal, percent of control (control = 100%)", "setting": "Time 2 hr, dilution 1:1", "value": 108.61, "unit": "%"},
      {"measurement": "LOC antibody dot blot signal, percent of control (control = 100%)", "setting": "Time 2 hr, dilution 1:2", "value": 89.63, "unit": "%"}
    ]}
  ]
}
